Laboratory results published in US10301284B2, “Therapeutic inhibitory compounds” (LifeSci Pharmaceuticals, Inc., priority 2016, dated 2019).
Like-named read-outs stand apart in the source and are kept apart here.

Biological target: human Plasma Kallikrein (Homo sapiens (Human), UniProt P03952)
Assay: In vitro enzyme inhibition of human plasma kallikrein (Pro-Phe-Arg-AMC cleavage)
Type: biochemical
Description: The ability of the compounds disclosed herein to inhibit human plasma kallikrein activity was quantified according to the procedures below.
A 10 mM solution of the test compound was made in DMSO. This solution was serially diluted 1:5 in DMSO to yield 2000, 400, 80, 16, 3.2, 0.64, 0.128, 0.0256 and 0.00512 μM compound test solutions. A control tube containing only DMSO is included. 16 μL of each compound test solution was combined with 384 μL of assay buffer (50 mM Tris-HCl pH 7.5, 150 mM NaCl, 0.01% Triton X-100) to yield a “4× test compound buffer stock”.
Separately, a 40 nM solution of human Plasma Kallikrein (Abcam) and a 93.6 μM solution Pro-Phe-Arg-AMC (Bachem) were made using assay buffer. These solutions are hereby referred to as 4×hPK and 2×PFR-AMC, respectively.
60 μL of each 4× test compound buffer stock was combined with 60 μL of 4×hPK to yield 120 μL of “2× test compound buffer stock/2×hPK”. 50 μL was removed from this mixture and placed into duplicate wells on a Microfluor 1Black U-bottom microtiter plate (Thermo Scientific). This plate was incubated for 5 minutes at 37° C. To each well, 50 μL of pre-warmed 2×PFR-AMC was added to start the enzymatic reaction. Cleavage of PFR-AMC was monitored in a Biotek Synergy H4 reader set at 37° C. Readings are taken every 43 seconds for 1 hour. The highest mean velocity over 20 reads (˜15 minutes) is used to calculate the IC50. The IC50 is calculated using the Gen5 (Biotek Instruments).
The ability of the compounds listed in Table 2 to inhibit human plasma kallikrein activity was determined.

[1] = human plasma kallikrein, PFR-AMC substrate, 37° C., read-out: hPK IC50

Sequence of human Plasma Kallikrein (P03952 391-638 limits assumed): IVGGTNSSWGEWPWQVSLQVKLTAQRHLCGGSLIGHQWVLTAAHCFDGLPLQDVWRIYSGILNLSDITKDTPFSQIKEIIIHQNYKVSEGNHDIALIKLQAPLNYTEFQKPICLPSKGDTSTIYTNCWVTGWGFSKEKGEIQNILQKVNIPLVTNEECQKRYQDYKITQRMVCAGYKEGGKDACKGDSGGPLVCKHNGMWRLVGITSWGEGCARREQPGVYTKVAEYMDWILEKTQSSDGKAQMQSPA
Sequence of human Plasma Kallikrein (P03952 20-390 partner limits assumed): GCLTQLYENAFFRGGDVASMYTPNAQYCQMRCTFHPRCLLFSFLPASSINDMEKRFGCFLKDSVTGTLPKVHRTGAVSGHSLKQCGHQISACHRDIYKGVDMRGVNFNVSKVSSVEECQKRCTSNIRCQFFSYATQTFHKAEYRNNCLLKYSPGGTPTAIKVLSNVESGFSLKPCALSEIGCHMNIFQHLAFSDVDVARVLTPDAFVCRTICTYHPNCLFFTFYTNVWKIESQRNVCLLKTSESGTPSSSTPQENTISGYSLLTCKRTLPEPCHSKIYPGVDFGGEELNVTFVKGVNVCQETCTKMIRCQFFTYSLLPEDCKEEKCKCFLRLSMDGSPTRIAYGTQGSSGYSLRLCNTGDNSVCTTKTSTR

SMILES	IC50 [1]	IC50
Cc1cc(N)nc(C)c1CNC(=O)c1cn(Cc2ccc3ncc(Cl)cc3c2)nc1C(C)O (centres unmarked) [Example 94, N-((6-amino-2,4-dimethylpyridin-3-yl)methyl)-1-((3-chloroquinolin-6-yl)methyl)-3-(1-hydroxyethyl)-1H-pyrazole-4-carboxamide]	< 0.1 µM	–
Cc1nc(N)ccc1CNC(=O)c1nnc(Cc2ccc3ncc(Cl)cc3c2)[nH]1 [Example 97, N-((6-amino-2-methylpyridin-3-yl)methyl)-5-((3-chloroquinolin-6-yl)methyl)-4H-1,2,4-triazole-3-carboxamide]	< 0.1 µM	–
Cc1cc(N)nc(C)c1CNC(=O)c1nc(Cc2ccc3ncc(Cl)cc3c2)nn1C [Example 99, N-((6-amino-2,4-dimethylpyridin-3-yl)methyl)-3-((3-chloroquinolin-6-yl)methyl)-1-methyl-1H-1,2,4-triazole-5-carboxamide]	< 0.1 µM	–
Cc1cc(N)nc(C)c1CNC(=O)c1nc(Br)n(Cc2ccc3ncc(Cl)cc3c2)n1 [Example 100, N-((6-amino-2,4-dimethylpyridin-3-yl)methyl)-5-bromo-1-((3-chloroquinolin-6-yl)methyl)-1H-1,2,4-triazole-3-carboxamide]	< 0.1 µM	–
Cc1cc(N)nc(C)c1CNC(=O)c1nc(C#N)n(Cc2ccc3ncc(Cl)cc3c2)n1 [Example 101, N-((6-amino-2,4-dimethylpyridin-3-yl)methyl)-1-((3-chloroquinolin-6-yl)methyl)-5-cyano-1H-1,2,4-triazole-3-carboxamide]	> 10 µM	–
COC(=O)c1nc(C(=O)NCc2c(C)cc(N)nc2C)nn1Cc1ccc2ncc(Cl)cc2c1 [Example 102, methyl 3-(((6-amino-2,4-dimethylpyridin-3-yl)methyl)carbamoyl)-1-((3-chloroquinolin-6-yl)methyl)-1H-1,2,4-triazole-5-carboxylate]	> 10 µM	–
Cc1cc(N)nc(C)c1CNC(=O)c1c[nH]c(Cc2ccc3ncc(Cl)cc3c2)n1 [Example 103, N-((6-amino-2,4-dimethylpyridin-3-yl)methyl)-2-((3-chloroquinolin-6-yl)methyl)-1H-imidazole-4-carboxamide]	< 0.1 µM	–
Cc1cc(N)nc(C)c1CNC(=O)c1cn(C)c(Cc2ccc3ncc(Cl)cc3c2)n1 [Example 104, N-((6-amino-2,4-dimethylpyridin-3-yl)methyl)-2-((3-chloroquinolin-6-yl)methyl)-1-methyl-1H-imidazole-4-carboxamide]	> 10 µM	–
Cc1cc(N)nc(C)c1CNC(=O)c1cnc(Cc2ccc3ncc(Cl)cc3c2)n1C [Example 105, N-((6-amino-2,4-dimethylpyridin-3-yl)methyl)-2-((3-chloroquinolin-6-yl)methyl)-1-methyl-1H-imidazole-5-carboxamide]	1 to 10 µM	–
Cc1cc(N)nc(C)c1CNC(=O)c1[nH]c(Cc2ccc3ncc(Cl)cc3c2)nc1Br [Example 106, N-((6-amino-2,4-dimethylpyridin-3-yl)methyl)-4-bromo-2-((3-chloroquinolin-6-yl)methyl)-1H-imidazole-5-carboxamide]	< 0.1 µM	–
Cc1cc(N)nc(C)c1CNC(=O)c1cc(C#N)n(Cc2ccc3ncc(Cl)cc3c2)n1 [Example 108, N-((6-amino-2,4-dimethylpyridin-3-yl)methyl)-1-((3-chloroquinolin-6-yl)methyl)-5-cyano-1H-pyrazole-3-carboxamide]	0.1 to 1 µM	–
Cc1cc(N)nc(C)c1CNC(=O)c1cc(C#N)nn1Cc1ccc2ncc(Cl)cc2c1 [Example 109, N-((6-amino-2,4-dimethylpyridin-3-yl)methyl)-1-((3-chloroquinolin-6-yl)methyl)-3-cyano-1H-pyrazole-5-carboxamide]	> 10 µM	–
Cc1cc(N)nc(C)c1CNC(=O)c1cn(Cc2ccc3ncc(Cl)cc3c2)c(C(N)=O)n1 [Example 111, N4-((6-amino-2,4-dimethylpyridin-3-yl)methyl)-1-((3-chloroquinolin-6-yl)methyl)-1H-imidazole-2,4-dicarboxamide]	0.1 to 1 µM	–
Cc1cc(N)nc(C)c1CNC(=O)c1cn(Cc2ccc3ncc(Cl)cc3c2)c(CN)n1 [Example 112, N-((6-amino-2,4-dimethylpyridin-3-yl)methyl)-2-(aminomethyl)-1-((3-chloroquinolin-6-yl)methyl)-1H-imidazole-4-carboxamide]	0.1 to 1 µM	–
Cc1cc(N)nc(C)c1CNC(=O)c1cn(Cc2ccc3ncc(Cl)cc3c2)c(C#N)n1 [Example 113, N-((6-amino-2,4-dimethylpyridin-3-yl)methyl)-1-((3-chloroquinolin-6-yl)methyl)-2-cyano-1H-imidazole-4-carboxamide]	0.1 to 1 µM	–
Cc1cc(N)nc(C)c1CNC(=O)c1cn(Cc2ccc3ncc(Cl)cc3c2)c2cnc(Cl)cc12 [Example 117, N-((6-amino-2,4-dimethylpyridin-3-yl)methyl)-5-chloro-1-((3-chloroquinolin-6-yl)methyl)-1H-pyrrolo[2,3-c]pyridine-3-carboxamide]	< 0.1 µM	–
Cc1cc(N)nc(C)c1CNC(=O)c1cn(Cc2ccc3ncc(Cl)cc3c2)c2cc[nH]c(=O)c12 [Example 118, N-((6-amino-2,4-dimethylpyridin-3-yl)methyl)-1-((3-chloroquinolin-6-yl)methyl)-4-oxo-4,5-dihydro-1H-pyrrolo[3,2-c]pyridine-3-carboxamide]	> 10 µM	–
Cc1cc(N)nc(C)c1CNC(=O)c1nn(Cc2ccc3ncc(Cl)cc3c2)c2ccnc(Cl)c12 [Example 119, N-((6-amino-2,4-dimethylpyridin-3-yl)methyl)-4-chloro-1-((3-chloroquinolin-6-yl)methyl)-1H-pyrazolo[4,3-c]pyridine-3-carboxamide]	–	0.1 to 1 µM
Cc1cc(N)nc(C)c1CNC(=O)c1nn(Cc2ccc3ncc(Cl)cc3c2)c2cc[nH]c(=O)c12 [Example 120, N-((6-amino-2,4-dimethylpyridin-3-yl)methyl)-1-((3-chloroquinolin-6-yl)methyl)-4-oxo-4,5-dihydro-1H-pyrazolo[4,3-c]pyridine-3-carboxamide]	1 to 10 µM	–
COc1cc2c(C(=O)NCc3c(C)cc(N)nc3C)cn(Cc3ccc4ncc(Cl)cc4c3)c2cn1 [Example 121, N-((6-amino-2,4-dimethylpyridin-3-yl)methyl)-1-((3-chloroquinolin-6-yl)methyl)-5-methoxy-1H-pyrrolo[2,3-c]pyridine-3-carboxamide]	< 0.1 µM	–
Cc1cc(N)nc(C)c1CNC(=O)c1nn(Cc2ccc3ncc(Cl)cc3c2)c2c[nH]c(=O)cc12 [Example 124, N-((6-amino-2,4-dimethylpyridin-3-yl)methyl)-1-((3-chloroquinolin-6-yl)methyl)-5-oxo-5,6-dihydro-1H-pyrazolo[3,4-c]pyridine-3-carboxamide]	0.1 to 1 µM	–
COc1ccc2c(n1)c(C(=O)NCc1c(C)cc(N)nc1C)cn2Cc1ccc2ncc(Cl)cc2c1 [Example 128, N-((6-amino-2,4-dimethylpyridin-3-yl)methyl)-1-((3-chloroquinolin-6-yl)methyl)-5-methoxy-1H-pyrrolo[3,2-b]pyridine-3-carboxamide]	–	1 to 10 µM
Cc1cc(N)nc(C)c1CNC(=O)c1nn(Cc2ccc3ncc(Cl)cc3c2)c2cnc(C#N)cc12 [Example 130, N-((6-amino-2,4-dimethylpyridin-3-yl)methyl)-1-((3-chloroquinolin-6-yl)methyl)-5-cyano-1H-pyrazolo[3,4-c]pyridine-3-carboxamide]	< 0.1 µM	–
